ChEMBL document CHEMBL5390296, “N-Biphenyl Pyrrolinones and Dibenzofurans as RNA-Binding Protein LIN28 Inhibitors Disrupting the LIN28-Let-7 Interaction” (ACS Med Chem Lett, 2023)
Activity calls are given as the source filed them. No cut-off for these calls is given here.

Assays:
[1] = Inhibition of LIN28A (16 to 187 residues) (unknown origin) expressed in Escherichia coli BL21(DE3)/mouse let-7 interaction at 75 uM incubated for 15 mins in presence of Cy-3-fluorophore labeled RNA by electrophoretic mobility shift assay relative to control
[2] = Inhibition of LIN28A (16 to 187 residues) (unknown origin) expressed in Escherichia coli BL21(DE3)/mouse let-7 interaction incubated for 15 mins in presence of Cy-3-fluorophore labeled RNA by electrophoretic mobility shift assay
[3] = target: T1, Protein lin-28 homolog A (Homo sapiens) (UniProt Q9H9Z2); experiment: Binding affinity to recombinant LIN28A CSD (16 to 126 residues) (unknown origin) by biolayer interferometry analysis; conditions: dose 1.56-100 µM
T1 sequence (whole entry): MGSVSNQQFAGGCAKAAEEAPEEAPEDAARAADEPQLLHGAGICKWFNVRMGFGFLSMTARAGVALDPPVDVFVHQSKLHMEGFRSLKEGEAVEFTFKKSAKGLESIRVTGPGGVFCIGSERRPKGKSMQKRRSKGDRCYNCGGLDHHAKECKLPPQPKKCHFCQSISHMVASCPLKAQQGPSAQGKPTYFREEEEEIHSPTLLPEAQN

[4] = tested on: JAR; experiment: Inhibition of let-7d miRNA biogenesis in human JAR cells incubated for 24 hrs by qPCR analysis; type: functional, cell-based; conditions: dose 5-20 µM
[5] = tested on: let-7i miRNA; experiment: Inhibition of let-7i miRNA biogenesis in human JAR cells incubated for 24 hrs by qPCR analysis; type: functional, cell-based; conditions: dose 5-20 µM
[6] = species on record: Homo sapiens; experiment: Inhibition of LIN28B (24 to 111 residues) (unknown origin) expressed in Escherichia coli BL21(DE3)/mouse let-7 interaction incubated for 15 mins in presence of Cy-3-fluorophore labeled RNA by electrophoretic mobility shift assay; conditions: dose 2.3-150 µM
[7] = Inhibition of let-7d miRNA biogenesis in human JAR cells assessed as fold increase in mature […] at 5 to 20 uM incubated for 24 hrs by qPCR analysis; type: functional; conditions: dose 5-20 µM
[8] = tested on: let-7i miRNA; experiment: Inhibition of let-7i miRNA biogenesis in human JAR cells assessed as fold increase in mature […] at 5 to 20 uM incubated for 24 hrs by qPCR analysis; type: functional, cell-based; conditions: dose 5-20 µM
[9] = target: T1, Protein lin-28 homolog A (Homo sapiens); experiment: Inhibition of recombinant LIN28A CSD (16 to 126 residues) (unknown origin) assessed as increase in thermal stability at 75 uM incubated for 45 mins by nano differential scanning fluorimetry analysis

SMILES	inhibition [1]	further results
O=C(C1=C(O)C(=O)N(CCCc2ccccc2)C1c1ccc([N+](=O)[O-])cc1)c1ccccc1 (centres undefined)	–	IC50 [2]: 5 µM
Nc1ccc(C2C(C(=O)c3ccccc3)=C(O)C(=O)N2c2ccc(O)c(C(=O)O)c2)cc1 (centres undefined)	–	IC50 [2]: 5 µM
O=C(O)c1cc(N2C(=O)c3nn(Cc4ccccc4)c(-c4ccccc4)c3C2c2ccc([N+](=O)[O-])cc2)ccc1O (centres undefined)	inactive	–
O=C1C(=O)C2(CCCC2=O)C(c2ccccc2)N1c1ccccc1 (centres undefined)	inactive	–
O=C(C1=C(O)C(=O)N(c2cccc(-c3ccccc3)c2)C1c1ccc([N+](=O)[O-])cc1)c1ccccc1 (racemic)	84%	Activity [3]: Dose-Dependent Effect; Activity [4]: Dose-Dependent Effect; Activity [5]: Dose-Dependent Effect; inhibition [6]: Dose-Dependent Effect; fold change (FC) [7]: 2; fold change (FC) [8]: 2
O=C(O)c1cc(N2C(=O)C(O)=C(Cc3ccccc3)[C@@H]2c2ccc([N+](=O)[O-])cc2)ccc1O	inactive	–
O=C(C1=C(O)C(=O)N(c2cccc(-c3ccccc3)c2)[C@@H]1c1ccc([N+](=O)[O-])cc1)c1ccccc1	–	IC50 [2]: 37 µM
Cn1nnc2cc(C3C(C(=O)c4ccccc4)=C(O)C(=O)N3c3ccc(O)c(C(=O)O)c3)ccc21 (centres undefined)	–	ΔTm [9]: < 0.5 °C
O=C(C1=C(O)C(=O)N(c2cccc(-c3ccccc3)c2)C1c1ccc([N+](=O)[O-])cc1)C1CC1 (centres undefined)	inactive	–
N=C1CC=CC=C1C1=C(N)C(=O)N(c2ccc(O)c(C(=O)O)c2)[C@@H]1c1ccc([N+](=O)[O-])cc1	inactive	–
O=C(O)c1cc(N2C(=O)c3c(c(-c4ccccc4)nn3Cc3ccccc3)C2c2ccc([N+](=O)[O-])cc2)ccc1O (centres undefined)	inactive	–
O=C1C(=O)C2(CCCCC2=O)C(c2ccc([N+](=O)[O-])cc2)N1c1cccc(-c2ccccc2)c1 (centres undefined)	inactive	–
O=C(C1=C(O)C(=O)N(c2ccc(O)c(C(=O)O)c2)[C@H]1c1ccc([N+](=O)[O-])cc1)c1ccc(Cl)cc1	inactive	–
O=C1C(=O)C2(CCCC2=O)C(c2ccc([N+](=O)[O-])cc2)N1c1ccc2c(c1)oc1ccccc12 (centres undefined)	inactive	–

The next lines start with results.

inhibition [1]	SMILES	further results
65.6%	Cc1ccc(C(=O)C2=C(O)C(=O)N(c3ccc(O)c(C(=O)O)c3)C2c2ccc([N+](=O)[O-])cc2)cc1 (centres undefined)	–
inactive	O=C(C1=C(O)C(=O)N(c2cccc([N+](=O)[O-])c2)[C@@H]1c1ccc([N+](=O)[O-])cc1)c1ccccc1	–
inactive	O=C(O)c1cc(N2C(=O)C(O)=C(Cc3ccccc3)[C@H]2c2ccc([N+](=O)[O-])cc2)ccc1O	–
inactive	NC1=C(C(=O)c2ccccc2)[C@@H](c2ccc([N+](=O)[O-])cc2)N(c2ccc(O)c(C(=O)O)c2)C1=O	–
inactive	O=C(C1=C(O)C(=O)N(c2ccc(O)c(C(=O)O)c2)[C@@H]1c1ccc([N+](=O)[O-])cc1)c1ccc(Cl)cc1	–
inactive	O=C1C(=O)C2(CCCCC2=O)C(c2ccccc2)N1c1ccccc1 (centres undefined)	–
64.8%	O=C(O)c1cc(N2C(=O)C(O)=C(c3nccs3)C2c2ccc([N+](=O)[O-])cc2)ccc1O (centres undefined)	–
inactive	COc1ccc(C(=O)C2=C(O)C(=O)N(c3cccc(-c4ccccc4)c3)C2c2ccc([N+](=O)[O-])cc2)cc1OC (centres undefined)	–
inactive	O=C1C(=O)C2(CCCC2=O)C(c2ccc([N+](=O)[O-])cc2)N1c1cccc(-c2ccccc2)c1 (centres undefined)	–
inactive	O=C1C(=O)C2(CCCC2=O)C(c2ccc([N+](=O)[O-])cc2)N1c1ccc2oc3ccccc3c2c1 (centres undefined)	–
106%	O=C(C1=C(O)C(=O)N(c2ccc(O)c(C(=O)O)c2)C1c1ccc([N+](=O)[O-])cc1)c1ccccn1 (centres undefined)	–
inactive	O=C(C1=C(O)C(=O)N(c2cccc([N+](=O)[O-])c2)[C@H]1c1ccc([N+](=O)[O-])cc1)c1ccccc1	–
inactive	CS(=O)(=O)c1ccc(C(=O)C2=C(O)C(=O)N(c3cccc(-c4ccccc4)c3)C2c2ccc([N+](=O)[O-])cc2)cc1 (centres undefined)	–
inactive	O=C(C1=C(O)C(=O)N(c2cccc(-c3ccccc3)c2)C1c1ccc([N+](=O)[O-])cc1)c1ccc(F)cc1O (centres undefined)	–
